Results: patent publication US9993554B2 (CENTRO NACIONAL DE INVESTIGACIONES ONCOLOGICAS (CNIO), priority 2010, dated 2018)

Key:
PI3K (p110α/p85α) = biological target: T1, PI3K (p110α/p85α) (Homo sapiens, UniProt P42336); assay: PI3K activity assay (ADP Hunter Plus); type: biochemical; settings: read-out: IC50, PI3K inhibition
T1 construct: purchased Carna Biosciences 07CBS-0402A
Method: The kinase activity was measured by using the commercial ADP Hunter™ Plus assay available from DiscoveRx (#33-016), which is a homogeneous assay to measure the accumulation of ADP, a universal product of kinase activity. […] Reaction was carried out for 1 hour at 25° C. Reagent A and B were sequentially added to the wells and plates were incubated for 30 min at 37° C. […] Values were normalized against the control activity included for each enzyme (i.e., 100% PI3 kinase activity, without compound). These values were plot against the inhibitor concentration and were fit to a sigmoid dose-response curve by using the Graphad software.

PI3K isoform p110δ = PI3K isoform p110δ (Homo sapiens, UniProt O00329); assay: Inhibition of PI3K isoform p110δ; type: biochemical
PI3K isoform p1103 = PI3K isoform p1103 (Homo sapiens, UniProt P42338); assay: Inhibition of PI3K isoform p110β; type: biochemical
PI3K isoform p110γ = PI3K isoform p110γ (Homo sapiens, UniProt P48736); assay: Inhibition of PI3K isoform p110γ; type: biochemical
pre-brown adipocytes = assay: Immortalized neonatal (pre-)brown adipocytes treated with PI3K inhibitors: phospho-Akt and Ucp1 mRNA; type: cell-based, mice; settings: 4 h
Method: Pre-brown adiposcytes were treated with Compound A or with the indicated PI3KI for 4 h. After this time, extracts were prepared for analysis of phospho-Akt (upper panels) or for analysis of Ucp1 mRNA levels (lower panels).
Mouse Embryonic Fibroblasts (MEFs) were isolated at E13.5 as previously described^42. For insulin stimulation, primary MEFs were serum starved (0% FBS) for 12 h, followed by 60 min incubation with PBS and then stimulated with 1 μg/ml of insulin (Sigma) during 30 min. For oncogenic transformation, primary MEFs were retrovirally transduced with pLXSN-neo-E6 and either pWZL-blast-middle-T (kindly provided by Jean Zhao, Dana-Farber Cancer Institute, Boston) or pBABE-puro-EGFRL858R (kindly provided by William Sellers and Matthew Meyerson, Addgene plasmid #11012)^43. After the corresponding drug selection 20,000 cells were plated in 10 cm diameter plates, and 2 weeks later were fixed and stained with 20% Giemsa. Immortalized brown adipocyte cell lines were obtained from the interscapular BAT of 3-5 day-old neonates, treated with and cultured as previously described^33. For immortalization, cultures were retrovirally transduced with Large-T antigen (in vector pBABE-puro, kindly provided by James de Caprio, Dana Farber Cancer Institute, Boston). For the reprogramming of 3T3-L1 adipocytes into brownadipocytes, we followed the method previously reported^50. Briefly, 3T3-L1 cells were retrovirally transduced with pBABE-puro-Cebpb (kindly provided by Roger R. Gomis, IRB, Barcelona). After drug selection with puromycin, cells were grown to confluence and subsequently cultured for 48 h with “differentiation medium” (DMEM 10% FBS, 20 nM insulin, 1 nM T3, 1 μM rosiglitazone, 0.5 mM isobutylmethylxanthine, 125 nM indomethacin, 5 μM dexamethasone). After this, cells were exposed to “maintenance medium” (DMEM 10% FBS, 20 nM insulin, 1 nM T3) for 4 days. For the experiment shown in FIG. 4d, differentiated 3T3-L1/Cebpβ or non-differentiated neonatal immortalized brown adipocytes cultures were PBS washed and treated with “regular medium” (DMEM 10% FBS) containing 10 μM forskolin (Sigma) and/or or 1 μM Compound A for 4 h.
Immortalized brown adipocytes were obtained from the interscapular BAT of 3-5 day-old neonates and immortalized by retroviral transduction of Large-T antigen (in vector pBABE-puro, kindly provided by James de Caprio, Dana Farber Cancer Institute, Boston). […]
For RNA analyses, total RNA from pre-brown adipocytes was extracted using TRIZOL (Invitrogen). Reverse transcription was performed using random primers and Ready-To-Go™ You-Prime First-Strand Beads (GE Healthcare). Quantitative real time-PCR was performed using DNA Master Sybr Green I mix (Applied Biosystems) in an ABI PRISM 7700 thermocycler (Applied Biosystem). […]

[1] = tested on: brown adipose tissue (BAT) of C57BL6 mice; assay: In vivo inhibition of PI3K: mRNA levels in BAT; settings: 15 mg/kg by gavage, 6 h, C57BL6 males
Method: For in vitro assays Compound A was added at a concentration of 1 μM. For in vivo assays, Compound A″ was administered orally by gavage at a dose of 15 mg/kg. Mice were sacrificed 6 h after and tissues were extracted and analyzed. Treated mice were C57BL6 males, 3 months old.
Total RNA from tissues or fibroblasts was extracted using TRIZOL (Invitrogen). Reverse transcription was performed using random primers and Ready-To-Go™ You-Prime First-Strand Beads (GE Healthcare). Quantitative real time-PCR was performed using DNA Master Sybr Green I mix (Applied Biosystems) in an ABI PRISM 7700 thermocycler (Applied Biosystem). Primer sequences are described in Supp.

Chain of PI3K isoform p1103 (P42338 whole entry, canonical isoform): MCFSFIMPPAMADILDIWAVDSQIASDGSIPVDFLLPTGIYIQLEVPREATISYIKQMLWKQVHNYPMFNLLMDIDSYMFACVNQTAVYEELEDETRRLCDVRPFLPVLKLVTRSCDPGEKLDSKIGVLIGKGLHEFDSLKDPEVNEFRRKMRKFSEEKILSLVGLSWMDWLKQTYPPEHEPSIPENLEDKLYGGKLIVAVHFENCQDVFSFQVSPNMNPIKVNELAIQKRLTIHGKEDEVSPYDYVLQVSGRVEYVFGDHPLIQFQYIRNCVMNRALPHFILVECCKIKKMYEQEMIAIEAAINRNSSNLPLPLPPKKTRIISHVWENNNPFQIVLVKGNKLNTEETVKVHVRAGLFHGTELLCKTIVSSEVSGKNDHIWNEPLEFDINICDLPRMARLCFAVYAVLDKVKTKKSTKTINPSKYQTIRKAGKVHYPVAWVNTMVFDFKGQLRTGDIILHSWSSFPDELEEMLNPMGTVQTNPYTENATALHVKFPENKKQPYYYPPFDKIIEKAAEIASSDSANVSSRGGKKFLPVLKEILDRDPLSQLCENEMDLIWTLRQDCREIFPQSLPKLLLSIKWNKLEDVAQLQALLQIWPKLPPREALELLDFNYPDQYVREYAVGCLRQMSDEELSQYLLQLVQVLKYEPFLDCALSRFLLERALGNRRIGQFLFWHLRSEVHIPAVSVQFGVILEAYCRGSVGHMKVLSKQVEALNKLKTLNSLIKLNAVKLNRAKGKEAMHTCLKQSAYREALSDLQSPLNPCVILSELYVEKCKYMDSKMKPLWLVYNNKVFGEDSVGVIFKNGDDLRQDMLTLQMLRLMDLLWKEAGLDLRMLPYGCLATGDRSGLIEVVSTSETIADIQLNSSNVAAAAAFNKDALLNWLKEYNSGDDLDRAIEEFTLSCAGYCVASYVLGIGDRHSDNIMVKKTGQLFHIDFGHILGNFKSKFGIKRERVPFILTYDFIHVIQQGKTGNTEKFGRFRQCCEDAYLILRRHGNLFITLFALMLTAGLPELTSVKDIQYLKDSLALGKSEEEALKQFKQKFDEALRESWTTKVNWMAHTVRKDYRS
Chain of PI3K isoform p1103 (P27986 whole entry partner, canonical isoform): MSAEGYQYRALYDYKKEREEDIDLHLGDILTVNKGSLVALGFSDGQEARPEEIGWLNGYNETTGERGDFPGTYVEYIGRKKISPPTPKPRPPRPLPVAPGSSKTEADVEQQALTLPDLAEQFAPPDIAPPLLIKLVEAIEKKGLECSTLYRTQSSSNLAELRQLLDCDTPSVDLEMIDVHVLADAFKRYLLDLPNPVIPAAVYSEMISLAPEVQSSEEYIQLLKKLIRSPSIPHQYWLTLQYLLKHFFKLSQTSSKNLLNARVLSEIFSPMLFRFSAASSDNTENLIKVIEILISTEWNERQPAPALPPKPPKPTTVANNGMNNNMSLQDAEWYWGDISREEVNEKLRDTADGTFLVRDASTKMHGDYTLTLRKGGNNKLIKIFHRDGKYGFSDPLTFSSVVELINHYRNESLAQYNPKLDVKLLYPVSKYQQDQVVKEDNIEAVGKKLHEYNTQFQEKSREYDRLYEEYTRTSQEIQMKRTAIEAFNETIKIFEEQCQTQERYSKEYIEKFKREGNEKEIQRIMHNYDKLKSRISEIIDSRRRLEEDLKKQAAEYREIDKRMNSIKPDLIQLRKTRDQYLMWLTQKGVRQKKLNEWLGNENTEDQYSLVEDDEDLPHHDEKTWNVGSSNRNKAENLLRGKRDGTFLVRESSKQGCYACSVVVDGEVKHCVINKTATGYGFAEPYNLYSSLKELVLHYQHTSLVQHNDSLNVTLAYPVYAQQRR
T1 sequence (P42336 whole entry): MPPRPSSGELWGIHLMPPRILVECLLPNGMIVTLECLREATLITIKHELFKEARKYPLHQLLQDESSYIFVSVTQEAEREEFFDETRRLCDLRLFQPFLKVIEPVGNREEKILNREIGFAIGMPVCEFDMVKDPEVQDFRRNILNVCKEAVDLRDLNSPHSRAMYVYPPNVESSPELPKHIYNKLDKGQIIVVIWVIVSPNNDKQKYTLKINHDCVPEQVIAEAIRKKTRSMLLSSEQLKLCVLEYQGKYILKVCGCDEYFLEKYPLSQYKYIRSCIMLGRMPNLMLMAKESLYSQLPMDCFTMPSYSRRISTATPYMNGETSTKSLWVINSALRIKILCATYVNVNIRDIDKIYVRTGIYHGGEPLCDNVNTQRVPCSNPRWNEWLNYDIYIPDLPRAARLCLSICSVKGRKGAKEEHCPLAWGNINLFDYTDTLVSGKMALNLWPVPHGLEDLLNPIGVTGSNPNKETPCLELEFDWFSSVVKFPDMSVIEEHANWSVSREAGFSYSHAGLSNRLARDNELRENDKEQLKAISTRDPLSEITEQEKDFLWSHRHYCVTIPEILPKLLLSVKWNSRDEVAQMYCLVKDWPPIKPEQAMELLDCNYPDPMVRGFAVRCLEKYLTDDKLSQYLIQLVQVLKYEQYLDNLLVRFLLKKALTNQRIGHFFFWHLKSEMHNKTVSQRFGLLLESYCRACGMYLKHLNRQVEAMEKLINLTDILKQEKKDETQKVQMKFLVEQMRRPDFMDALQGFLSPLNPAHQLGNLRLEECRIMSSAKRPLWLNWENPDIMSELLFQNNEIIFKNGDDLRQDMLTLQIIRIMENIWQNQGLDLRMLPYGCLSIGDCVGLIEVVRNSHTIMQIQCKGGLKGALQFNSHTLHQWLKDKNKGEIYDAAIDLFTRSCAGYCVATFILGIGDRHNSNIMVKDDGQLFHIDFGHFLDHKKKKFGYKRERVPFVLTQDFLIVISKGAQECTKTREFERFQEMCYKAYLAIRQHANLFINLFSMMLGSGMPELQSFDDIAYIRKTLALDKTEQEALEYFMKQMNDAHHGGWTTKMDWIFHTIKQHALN
T1 sequence (P27986 whole entry partner): as the sequence (P27986 whole entry partner, canonical isoform) above
Chain of PI3K isoform p110γ (P48736 whole entry, canonical isoform): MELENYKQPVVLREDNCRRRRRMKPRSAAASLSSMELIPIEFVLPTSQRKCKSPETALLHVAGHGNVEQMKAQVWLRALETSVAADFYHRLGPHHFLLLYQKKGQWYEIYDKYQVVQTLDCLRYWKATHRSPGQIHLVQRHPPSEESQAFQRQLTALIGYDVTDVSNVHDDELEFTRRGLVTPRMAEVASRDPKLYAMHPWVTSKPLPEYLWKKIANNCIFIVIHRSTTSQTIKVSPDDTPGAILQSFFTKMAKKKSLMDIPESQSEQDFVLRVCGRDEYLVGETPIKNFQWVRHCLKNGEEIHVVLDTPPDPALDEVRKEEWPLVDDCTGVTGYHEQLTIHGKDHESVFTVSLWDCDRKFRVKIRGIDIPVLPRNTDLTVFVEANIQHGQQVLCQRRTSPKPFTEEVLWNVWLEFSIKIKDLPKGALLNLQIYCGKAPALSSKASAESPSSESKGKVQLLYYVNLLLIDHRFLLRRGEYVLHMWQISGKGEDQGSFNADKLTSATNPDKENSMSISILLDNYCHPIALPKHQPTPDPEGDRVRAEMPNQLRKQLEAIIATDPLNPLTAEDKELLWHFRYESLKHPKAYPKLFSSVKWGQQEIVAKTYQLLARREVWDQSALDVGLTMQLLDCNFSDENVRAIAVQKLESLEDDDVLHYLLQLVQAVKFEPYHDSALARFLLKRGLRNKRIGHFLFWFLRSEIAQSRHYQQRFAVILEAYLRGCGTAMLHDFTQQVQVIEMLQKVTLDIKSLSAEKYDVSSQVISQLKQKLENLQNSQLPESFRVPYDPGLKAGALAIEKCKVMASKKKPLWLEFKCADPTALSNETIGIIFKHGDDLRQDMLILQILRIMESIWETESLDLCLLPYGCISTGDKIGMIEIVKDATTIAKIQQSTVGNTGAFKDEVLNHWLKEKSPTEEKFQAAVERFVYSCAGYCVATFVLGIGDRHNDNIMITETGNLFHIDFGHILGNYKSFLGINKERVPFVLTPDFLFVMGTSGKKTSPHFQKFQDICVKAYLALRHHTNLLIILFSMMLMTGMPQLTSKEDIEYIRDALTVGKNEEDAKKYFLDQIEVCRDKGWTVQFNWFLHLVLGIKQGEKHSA
Chain of PI3K isoform p110δ (O00329 whole entry, canonical isoform): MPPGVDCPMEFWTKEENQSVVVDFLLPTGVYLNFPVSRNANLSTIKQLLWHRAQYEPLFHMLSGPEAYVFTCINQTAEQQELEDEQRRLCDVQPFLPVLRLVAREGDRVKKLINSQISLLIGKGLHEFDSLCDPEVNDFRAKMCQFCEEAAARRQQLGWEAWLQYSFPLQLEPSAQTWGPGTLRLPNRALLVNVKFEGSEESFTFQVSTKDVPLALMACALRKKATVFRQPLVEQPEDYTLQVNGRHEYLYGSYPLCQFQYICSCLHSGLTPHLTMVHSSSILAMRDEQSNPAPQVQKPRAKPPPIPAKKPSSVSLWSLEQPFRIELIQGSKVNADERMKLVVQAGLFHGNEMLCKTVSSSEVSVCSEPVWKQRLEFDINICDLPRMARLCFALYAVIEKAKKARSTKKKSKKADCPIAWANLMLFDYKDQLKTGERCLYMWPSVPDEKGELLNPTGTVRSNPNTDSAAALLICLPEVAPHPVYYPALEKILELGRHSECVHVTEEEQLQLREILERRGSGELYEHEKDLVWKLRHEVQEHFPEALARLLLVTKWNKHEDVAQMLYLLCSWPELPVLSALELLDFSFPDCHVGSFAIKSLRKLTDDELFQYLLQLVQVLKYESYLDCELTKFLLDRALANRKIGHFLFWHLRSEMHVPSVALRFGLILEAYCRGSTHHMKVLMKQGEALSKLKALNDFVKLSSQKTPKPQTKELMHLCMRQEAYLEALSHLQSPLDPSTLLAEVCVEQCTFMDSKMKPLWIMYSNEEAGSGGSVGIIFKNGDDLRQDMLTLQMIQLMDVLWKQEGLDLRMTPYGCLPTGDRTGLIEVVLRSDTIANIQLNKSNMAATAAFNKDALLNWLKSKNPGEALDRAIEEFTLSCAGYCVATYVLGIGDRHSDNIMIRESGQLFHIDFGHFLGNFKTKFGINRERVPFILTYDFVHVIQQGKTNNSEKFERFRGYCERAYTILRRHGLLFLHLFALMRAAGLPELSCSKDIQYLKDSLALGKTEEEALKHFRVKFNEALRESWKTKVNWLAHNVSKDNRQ
Chain of PI3K isoform p110δ (P27986 whole entry partner, canonical isoform): as the sequence (P27986 whole entry partner, canonical isoform) above

IC50 (PI3K (p110α/p85α)): 2.4 nM
Ki (PI3K isoform p110δ): 9.8 nM
Ki (PI3K isoform p1103): > 100 nM
Ki (PI3K isoform p110γ): > 100 nM
Compound: CS(=O)(=O)N1CCN(Cc2cn3c(Cl)c(-c4cnc(N)nc4)nc(N4CCOCC4)c3n2)CC1 [Compound A]
inhibition of the phosphorylation of Akt (pre-brown adipocytes; 1 microM): measurable inhibition
up-regulation of Ucp1 mRNA levels (pre-brown adipocytes; 10-20 microM): 8-20 fold
inhibition of the phosphorylation of Akt (pre-brown adipocytes; 10 microM): complete inhibition
expression of Ucp1 (pre-brown adipocytes; immortalized neonatal brown adipocytes (three independent lines), 1 μM): upregulated
Lcad mRNA in the BAT [1]: significant upregulation
Pgc1a mRNA in the BAT [1]: significant upregulation
Ucp1 mRNA in the BAT [1]: significant upregulation
